Source: the supplement of paper PMC10307832

Legend:
Test in all cases: relative viability (nuclei count vs DMSO), 5 days (fraction); higher = more cells survive
Carboplatin + Foretinib = compound: C1CC(C1)(C(=O)O)C(=O)O.[NH2-].[NH2-].[Pt+2] [Carboplatin] + COc1cc2c(Oc3ccc(NC(=O)C4(C(=O)Nc5ccc(F)cc5)CC4)cc3F)ccnc2cc1OCCCN1CCOCC1 [Foretinib] (partner 0.25 µM)
Summary of the method: (§1)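 The day after seeding in 1536-well plates, lung cancer cell lines were treated by pin tool with a single drug, or with a fixed anchor-drug dose together with five library-drug doses (not always all listed) in √10 steps. After 5 days, a combined fix-and-stain solution (final 0.05% Triton X-100, 1% formaldehyde, 1 ug/ml Hoechst) was added. Nuclei counted on 4× images gave relative viability as treated counts over vehicle counts, reported as the median of duplicate plates.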

GSK126 + Luminespib = compound: CC[C@H](C)N1C=C(C2=C(C=C(C=C21)C3=CN=C(C=C3)N4CCNCC4)C(=O)NCC5=C(C=C(NC5=O)C)C)C [GSK126] + CCNC(=O)c1noc(-c2cc(C(C)C)c(O)cc2O)c1-c1ccc(CN2CCOCC2)cc1 [Luminespib] (partner 0.01 µM)
Summary of the method: as §1

GSK126 + Foretinib = compound: CC[C@H](C)N1C=C(C2=C(C=C(C=C21)C3=CN=C(C=C3)N4CCNCC4)C(=O)NCC5=C(C=C(NC5=O)C)C)C [GSK126] + COc1cc2c(Oc3ccc(NC(=O)C4(C(=O)Nc5ccc(F)cc5)CC4)cc3F)ccnc2cc1OCCCN1CCOCC1 [Foretinib] (partner 0.25 µM)
Summary of the method: as §1

MLN4924 + AZD7762 = compound: NS(=O)(=O)OC[C@@H]1C[C@@H](n2ccc3c(N[C@H]4CCc5ccccc54)ncnc32)C[C@@H]1O [MLN4924] + NC(=O)Nc1cc(-c2cccc(F)c2)sc1C(=O)N[C@H]1CCCNC1 [AZD7762] (partner 0.2 µM)
Summary of the method: as §1

Cell Line | relative viability (Carboplatin + Foretinib; first compound 0.08 µM) | relative viability (Carboplatin + Foretinib; first compound 0.253 µM) | relative viability (Carboplatin + Foretinib; first compound 0.8 µM) | relative viability (Carboplatin + Foretinib; first compound 2.53 µM) | relative viability (Carboplatin + Foretinib; first compound 8 µM) | relative viability (GSK126 + Luminespib; first compound 0.08 µM) | relative viability (GSK126 + Luminespib; first compound 0.253 µM) | relative viability (GSK126 + Luminespib; first compound 0.8 µM) | relative viability (GSK126 + Luminespib; first compound 2.53 µM) | relative viability (GSK126 + Luminespib; first compound 8 µM) | relative viability (GSK126 + Foretinib; first compound 0.08 µM) | relative viability (GSK126 + Foretinib; first compound 0.253 µM) | relative viability (GSK126 + Foretinib; first compound 0.8 µM) | relative viability (GSK126 + Foretinib; first compound 2.53 µM) | relative viability (GSK126 + Foretinib; first compound 8 µM) | relative viability (MLN4924 + AZD7762; first compound 0.04 µM) | relative viability (MLN4924 + AZD7762; first compound 0.1265 µM) | relative viability (MLN4924 + AZD7762; first compound 0.4 µM) | relative viability (MLN4924 + AZD7762; first compound 1.265 µM) | relative viability (MLN4924 + AZD7762; first compound 4 µM)
NCI-H2342 | 0.949 | 0.961 | 0.993 | 0.865 | 0.785 | 0.731 | 0.875 | 0.799 | 0.857 | 0.878 | 1.16 | 1.05 | 0.998 | 1.05 | 1.16 | 0.412 | 0.568 | 0.551 | 0.523 | 0.452
NCI-H441 | 0.929 | 0.971 | 0.744 | 1.01 | 0.915 | 0.361 | 0.283 | 0.28 | 0.35 | 0.349 | 0.889 | 0.866 | 0.975 | 0.926 | 0.715 | 1.23 | 1.12 | 0.722 | 0.452 | 0.173
NCI-H3122 | 0.944 | 0.986 | 0.926 | 0.91 | 0.923 | 0.0614 | 0.0957 | 0.0787 | 0.0846 | 0.103 | 0.983 | 1.03 | 0.985 | 1.01 | 0.994 | 0.916 | 0.485 | 0.229 | 0.132 | 0.105
HCC-78 | 0.616 | 0.555 | 0.54 | 0.526 | 0.545 |  |  |  |  |  | 0.561 | 0.556 | 0.521 | 0.63 | 0.548 | 0.665 | 0.754 | 0.981 | 0.265 | 0.251
Calu-6 | 0.911 | 0.919 | 0.793 | 0.789 | 0.415 |  |  |  |  |  | 1.02 | 0.934 | 0.896 | 0.829 | 0.978 |  |  |  |  | 
NCI-H2009 | 1.25 | 1.18 | 1.12 | 1 | 0.767 | 1.1 | 1.01 | 0.968 | 1.06 | 1.09 | 1.25 | 1.25 | 1.15 | 1.18 | 1.35 |  |  |  |  | 
NCI-H1648 |  |  |  |  |  |  |  |  |  |  |  |  |  |  |  | 0.777 | 0.727 | 0.526 | 0.33 | 0.223
SW 1573 | 0.883 | 1.03 | 1.01 | 0.901 | 0.799 | 0.424 | 0.374 | 0.196 | 0.43 | 0.16 | 1.09 | 1.04 | 0.929 | 1.05 | 0.949 |  |  |  |  | 
NCI-H661 | 1.01 | 0.982 | 0.984 | 1 | 0.842 | 0.908 | 0.884 | 0.905 | 0.873 | 0.944 | 1.09 | 1.05 | 0.997 | 1.04 | 1.09 |  |  |  |  | 
NCI-H1792 |  |  |  |  |  | 0.386 | 0.401 | 0.443 | 0.483 | 0.355 |  |  |  |  |  | 0.914 | 0.866 | 1.21 | 0.413 | 0.242
NCI-H1563 | 0.931 | 0.954 | 0.92 | 0.929 | 0.888 | 0.546 | 0.491 | 0.535 | 0.514 | 0.505 | 1.01 | 0.9 | 0.934 | 0.893 | 0.95 |  |  |  |  | 
HCC-366 | 0.91 | 0.877 | 0.957 | 0.918 | 0.759 |  |  |  |  |  | 1.02 | 0.974 | 0.907 | 0.892 | 0.935 | 0.312 | 0.56 | 0.526 | 0.297 | 0.0472
NCI-H1650 | 1.51 | 1.25 | 0.986 | 0.982 | 0.779 | 0.217 | 0.193 | 0.188 | 0.166 | 0.205 | 1.45 | 1 | 0.934 | 1.12 | 1.09 |  |  |  |  | 
HCC-44 |  |  |  |  |  | 1.14 | 1.1 | 1 | 1.11 | 1.16 |  |  |  |  |  | 1.03 | 0.992 | 0.824 | 0.563 | 0.478
NCI-H522 |  |  |  |  |  | 1.2 | 1.2 | 1.13 | 1.19 | 1.13 |  |  |  |  |  | 0.919 | 0.69 | 0.588 | 0.353 | 0.383
IA-LM | 1.25 | 1.06 | 1.21 | 1.19 | 1 |  |  |  |  |  | 1.26 | 1.03 | 0.994 | 1.03 | 1.08 |  |  |  |  | 
NCI-H2228 | 0.907 | 0.831 | 0.626 | 0.845 | 0.532 | 0.173 | 0.12 | 0.116 | 0.118 | 0.205 | 0.871 | 0.828 | 0.789 | 0.832 | 0.628 |  |  |  |  | 
NCI-H1623 | 0.959 | 0.919 | 0.884 | 0.747 | 0.725 | 0.617 | 0.425 | 0.502 | 0.512 | 0.42 | 0.941 | 0.888 | 0.916 | 0.883 | 0.799 |  |  |  |  | 
SK-LU-1 | 0.867 | 0.878 | 0.815 | 0.749 | 0.543 | 0.194 | 0.192 | 0.215 | 0.182 | 0.214 | 0.899 | 0.788 | 0.795 | 0.973 | 0.964 |  |  |  |  | 
SK-MES-1 | 1.24 | 0.95 | 0.906 | 1.06 | 0.818 | 0.856 | 0.76 | 0.823 | 0.866 | 0.908 | 1.01 | 0.913 | 0.88 | 0.834 | 0.976 |  |  |  |  | 
COR-L 105 | 0.986 | 0.993 | 0.902 | 0.897 | 0.578 | 1.01 | 0.74 | 0.78 | 0.734 | 0.839 | 1.23 | 1.08 | 0.989 | 0.871 | 0.99 |  |  |  |  | 
NCI-H520 | 0.905 | 0.815 | 0.795 | 0.831 | 0.575 | 0.22 | 0.221 | 0.236 | 0.231 | 0.237 | 1.04 | 0.693 | 0.719 | 0.78 | 0.909 |  |  |  |  | 
